The values that follow come from article PMC2361651 (British Journal of Cancer, 2005).

Structures are written as SMILES.

Data set [1] is described as follows: Plasma pharmacokinetics of SU5416 and metabolites in Phase I patients (HPLC UV). In kind it is in vivo, human. Conditions: plasma, patients. The method, then: Samples were taken prior to treatment infusion, 15 min into the infusion, at completion of the infusion and then at 5, 10, 20, 30, 45, 60, 120 and 240 min following the infusion. […] At the designated times, 4.0 ml of blood were collected into a lithium heparin tube, gently inverted and placed on ice to maintain the sample at 2–8°C. All samples were immediately centrifuged at 6000 r.p.m. at 4°C for 10 min, the supernatant divided between two 1.5 ml Nalgene cryovials and snap frozen in liquid nitrogen. Separated plasma samples were subsequently stored at −70°C until analysis.
Pharmacokinetic analysis was performed using a fully validated HPLC UV method ([Stopeck et al, 2002]). Plasma samples, standards (25–2000 ng ml^−1) and quality controls spiked with internal standards were extracted with acetonitrile. Following centrifugation, drying and reconstitution in 200 μl mobile phase, 20 μl were analysed by HPLC UV. Chromatography was carried out using a C18 analytical column, with a gradient mobile phase containing acetonitrile and 10 mM ammonium formate at pH 2.6. The flow rate was 0.8 ml min^−1 and the run-time 21 min. Detection was via UV absorption at a wavelength of 440 nm. The accuracy of the assay, reflected in relative error of measured concentration to theoretical (prepared) concentrations, was between 0.9 and 5.6% for all quality control samples.
Pharmacokinetic parameters were evaluated using WinNonLin Software®.

Data set [2] relates to receptor tyrosine kinases inhibited by the parent compound. Also noted: method as in Mendel et al, 2000. Conditions: ref Mendel et al, 2000; cited from earlier work.

For `Cc1cc(CO)[nH]c1/C=C1\C(=O)Nc2ccccc21` [SU9838], in data set [1], the “distribution and clearance of metabolite” value was “large volume of distribution and rapid clearance”; the “metabolite as proportion of the total” value is recorded as 5.2%. Besides, in data set [2], the “inhibitory activity for the receptor tyrosine kinases inhibited by the parent compound” value is “Neither metabolite shows inhibitory activity”.
